Reference: patent publication US7592363B2, “Indazoles” (Wyeth, priority 2004, dated 2009)

Row | Compound | melting point
1 | CC1CCCN(c2ccc(-c3c4cccc(C(F)(F)F)c4nn3Cc3c(F)cc(F)cc3F)cc2)C1 (stereo not drawn) | 103 °C
2 | COC(=O)C[C@H]1CCCN(c2ccc(-c3c4cccc(C(F)(F)F)c4nn3Cc3c(F)cc(F)cc3F)cc2)C1 | 103 °C
3 | COC(=O)C[C@@H]1CCCN(c2ccc(-c3c4cccc(C(F)(F)F)c4nn3Cc3c(F)cc(F)cc3F)cc2)C1 | 103 °C
4 | COc1ccc(-c2c3cccc(C(F)(F)F)c3nn2CC(C)C)c(OC)c1 [Example 106, 3-(2,4-DIMETHOXYPHENYL)-2-ISOBUTYL-7-(TRIFLUOROMETHYL)-2H-INDAZOLE] | 111 to 112 °C

The remaining lines, values ahead:

Row | melting point | Compound
5 | 156 to 157 °C | COc1ccc(-c2c3cccc(C(F)(F)F)c3nn2CC2CCCCC2)c(OC)c1 [Example 107, 2-(CYCLOHEXYLMETHYL)-3-(2,4-DIMETHOXYPHENYL)-7-(TRIFLUOROMETHYL)-2H-INDAZOLE]
6 | 51 to 52 °C | COc1ccc(-c2c3cccc(C(F)(F)F)c3nn2C2CCC2)c(OC)c1 [Example 109, 2-CYCLOBUTYL-3-(2,4-DIMETHOXYPHENYL)-7-(TRIFLUOROMETHYL)-2H-INDAZOLE]
7 | 138 to 139 °C | CCC(CC)n1nc2c(C(F)(F)F)cccc2c1-c1ccc(OC)cc1OC [Example 110, 3-(2,4-DIMETHOXYPHENYL)-2-(1-ETHYLPROPYL)-7-(TRIFLUOROMETHYL)-2H-INDAZOLE]
8 | 125 °C | Fc1ccc(-c2c3cccc(C(F)(F)F)c3nn2Cc2c(F)cc(F)cc2F)cc1 [Example 139, 3-(4-FLUOROPHENYL)-2-(2,4,6-TRIFLUOROBENZYL)-7-(TRIFLUOROMETHYL)-2H-INDAZOLE]
9 | 112 to 114 °C | Fc1ccc(-c2c3cccc(N4CCCC4)c3nn2Cc2ccc(F)cc2F)cc1 [Example 426, 2-(2,4-DIFLUOROBENZYL)-3-(4-FLUOROPHENYL)-7-PYRROLIDIN-1-YL-2H-INDAZOLE]
